Here are results for two compounds from paper PMC11968394, “The effect of deuterated PLK1 inhibitor on its safety and efficacy in vivo” (Frontiers in Oncology, 2025).

On the set-up of data set [1]: method as in PMID 28726132. The settings on record: phase 1 clinical trial, given dosage, 5-day dosing time period; cited from earlier work.
The nature of data set [2]: Pharmacokinetics in PSN1 tumor CDX model, M-NSG mice. The conditions noted are these: female, mouse, serum; PSN1 tumor-bearing M-NSG mice, oral, 60 mg/kg; read-out: T1/2 in blood (converted). Format: in vivo. The procedure: For in vivo PK/PD studies, a PSN1 tumor model was established in female M-NSG (NOD.Cg-Prkdc^scidIl2rg^em1Smoc ) mice, which are severely immunodeficient mice lacking the interleukin 2 receptor gamma chain on a NOD.Cg-Prkdc^scid background, at Shanghai Model Organisms (Shanghai, China). Briefly, 5 × 10^6 PSN1 cells were inoculated subcutaneously into each M-NSG mouse. Once the tumors reached approximately 500 mm³, compounds were administered orally at various dosages. For PK studies, blood samples were collected at 0, 0.25, 0.5, 1, 2, 6, and 24 hours post-dose. The sera from blood were then obtained and stored at -70°C. For PD studies, tumors were harvested 2 hours after dosing and stored at -70°C.The serum and tumor samples were then transported to PRECEDO (Hefei, Anhui, China) for further PK/PD studies.
For PK studies, serum and tumor samples were processed with the internal standard solution. Serum samples were centrifuged and mixed directly, while tumor samples were homogenized first. Supernatants were prepared for LC-MS/MS analysis. Compound concentrations were determined using LC-MS/MS with tolbutamide as the internal standard, employing a reverse-phase column and ESI on a tandem quadrupole mass spectrometer.

The test system of the next data set is HCT 116 CDX model. Kind of data set: HCT 116 CDX model. The conditions noted are these: for Tumor growth: BALB/c nude mice; for Mice died: BALB/c nude, 8 mice/group. The format is in vivo, BALB/c nude mouse. The procedure:
These studies were performed at Yikon Medical (Beijing, China). Cancer cell line HCT 116 or BxPC-3 were cultured in 10% FBS RPMI-1640 medium plus penicillin, streptomycin, and glutamine at 37°C and 5% CO2 until reaching confluency. Cells were then prepared for inoculation. 5×10⁷ cells/mL cells in 100 µL were inoculated subcutaneously into the right flank of each female BALB/c nude mouse for HCT 116 cell line or female NOD SCID mouse for BxPC-3 cell line. […] […] Mice were dosed at least 10 days and were monitored for 30 days.
TGI was calculated as follows.

For another data set, the system named is MIA PaCa-2. Briefly: Cell viability (CellTiter-Glo, 72 h), MIA PaCa-2. Format: cell-based, Human. The settings on record: MIA PaCa-2, 72 hours; for pIC50: Homo sapiens; for Bottom: dose-response curve bottom; for Top: dose-response curve top. The procedure:
Human pancreatic cancer cell lines (PSN1, PANC-1, Panc 04.03, MIA PaCa-2, BxPC-3, and Capan-1) were cultured in their respective culture media. PSN1 cell lines were maintained in RPMI 1640 + 10%FBS. MIA PaCa-2 cells were cultured in DMEM+10%FBS+5% horse serum. Panc 04.03 cells were grown in RPMI 1640 + 15%FBS+10μg/mL Insulin. PANC-1 cells were maintained in DMEM+10%FBS. BxPC-3 cells were cultured in RPMI 1640 + 10%FBS. Capan-1 cells were grown in IMDM+20%FBS. All cells were incubated at 37°C in a humidified atmosphere containing 5% CO2.
For assays, cells in the logarithmic growth phase were harvested, seeded to different concentrations at 2,000-6,000 cells/well in 96-well plates. Following overnight incubation, test compounds were added at various concentrations and incubated for 72 hours. Cell viability was assessed by the ATP concentration using the CellTiter-Glo reagent (Promega, Madison, WI 53711 USA), and luminescence values were recorded by a Multilabel Reader (PerkinElmer, Waltham, MA, USA).

By pIC50 is commonly meant the negative decadic logarithm of the IC50, by convention in mol/L.

pIC50: −log10 of the molar value. Several values for one entry are separate records, joined by “and”; a condition that tells them apart may be missing. Equal values may be shown once.

Regarding `CN1CCN(c2ccc(OC(F)(F)F)c(Nc3ncc4c(n3)-c3c(c(C(N)=O)nn3CCO)CC4)c2)CC1` [NMS-P937], the Tolerability result in data set [1] is reported as “well tolerated”. Besides, the half-life in data set [2] was 2.4 h. In the data set on HCT 116 CDX model (60 mg/kg), the Body weight result was “significant loss of body weight”. Besides, the Tumor growth result with HCT 116 CDX model is “inhibited the growth of tumors in a dose-dependent manner”. The Mice died entry in the data set with HCT 116 CDX model (30 mg/kg, 30 mg/kg) was “one mouse died and 1/8”. Moreover, in the data set with HCT 116 CDX model (60 mg/kg, 60 mg/kg), the Mice died entry was “three mice died and 3/8”. In the data set with MIA PaCa-2, the pIC50 is 6.71, the Bottom is listed as -4.1 and the Top was 78.7.

Regarding `[2H]C1([2H])N(C)C([2H])([2H])C([2H])([2H])N(c2ccc(OC(F)(F)F)c(Nc3ncc4c(n3)-c3c(c(C(N)=O)nn3CCO)CC4)c2)C1([2H])[2H]` [PR00012], the half-life in data set [2] is 5.5 h. Further, the Tumor growth result in the data set with HCT 116 CDX model is listed as “inhibited the growth of tumors in a dose-dependent manner”. Besides, the Mice died result with HCT 116 CDX model (30 mg/kg) is recorded as “No mice died”. The Mice died result in the data set on HCT 116 CDX model (60 mg/kg, 60 mg/kg) is “one mouse died and 1/8”. In the data set on MIA PaCa-2, the pIC50 is 6.58, the Bottom worked out at 8.4 and the Top is reported as 86.8.
